These results are taken from patent US11214803B2, “Modulators of YAP1 expression” (Ionis Pharmaceuticals, Inc., priority 2019, dated 2022).

Strand notation (5' to 3'): a small letter for the sugar, then the base; units joined by * are phosphorothioate-linked, units joined directly phosphodiester-linked; [ ] holds rarer units or linkages, { } end groups; capitals alone tell only the bases. k = constrained ethyl (cEt); [5mC] = 5-methylcytosine; d = 2'-deoxy (DNA)

One series deals with Yap1 mRNA. Briefly: Antisense inhibition of human Yap1 in A-431 cells by cEt gapmers, single dose (Example 4, RTS4814). In kind it is cell-based. To be noted: Table 14; A-431 cells, 5,000 cells per well, free uptake, 2,000 nM, approximately 48 hours; RTS4814; normalized to RIBOGREEN; Yap1 mRNA relative to untreated control; * = targets amplicon region of primer probe set. An outline of the steps: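 Values are % UTC: Yap1 mRNA by quantitative RT-PCR, normalized to RIBOGREEN total RNA. Cells were exposed ~48 h to 2,000 nM oligonucleotide without transfection. Oligonucleotides were 16-nucleoside gapmers with three cEt nucleosides per wing, ten-deoxy gap, P=S linkages throughout.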
Turning to “1074752 (k[5mC]*kA*kT*dT*dA*dG*dG*dA*dA*d[5mC]*dA*dA*dG*kG*kA*k[5mC]; antisense) [Compound 1074752]”, the “YAP1 (% UTC)” value worked out at 10 % UTC.
On to “1074784 (k[5mC]*k[5mC]*kA*dT*dA*dA*dG*dT*dA*dG*dA*dT*d[5mC]*kT*kA*kA; antisense) [Compound 1074784]”, for which the “YAP1 (% UTC)” value was 25 % UTC.
Same read-out and setting: for “1074816 (kG*kA*kA*dT*dA*dT*dT*dG*d[5mC]*d[5mC]*dA*d[5mC]*d[5mC]*k[5mC]*kA*k[5mC]; antisense) [Compound 1074816]” the value was 15 % UTC; for “1074848 (kG*kT*kT*dA*dT*dG*dA*dT*dA*dG*dG*d[5mC]*dA*k[5mC]*kA*k[5mC]; antisense) [Compound 1074848]”, 11 % UTC; for “1074912 (antisense kA*kT*k[5mC]*d[5mC]*d[5mC]*dG*dA*dG*dT*dG*dG*dG*d[5mC]*kT*kA*kA) [Compound 1074912]”, 85 % UTC.
For “1074944 (antisense kA*kA*kA*dA*d[5mC]*d[5mC]*d[5mC]*dT*dT*dT*dG*dG*dT*k[5mC]*kT*k[5mC]) [Compound 1074944]”, the “YAP1 (% UTC)” value was 89 % UTC.

The series is the same for the next values; noted with them: Table 15; A-431 cells, 5,000 cells per well, free uptake, 2,000 nM, approximately 48 hours; RTS4814; normalized to RIBOGREEN; Yap1 mRNA relative to untreated control; * = targets amplicon region of primer probe set.
With “1074753 (kT*kA*k[5mC]*dA*dT*dT*dA*dG*dG*dA*dA*d[5mC]*dA*kA*kG*kG; antisense) [Compound 1074753]”, the “YAP1 (% UTC)” value worked out at 4 % UTC.
Turning to “1074785 (kA*k[5mC]*k[5mC]*dA*dT*dA*dA*dG*dT*dA*dG*dA*dT*k[5mC]*kT*kA; antisense) [Compound 1074785]”, the “YAP1 (% UTC)” value was determined as 10 % UTC.
The same measure, in the same setting: as for “1074817 (k[5mC]*kT*kG*dA*dA*dT*dA*dT*dT*dG*d[5mC]*d[5mC]*dA*k[5mC]*k[5mC]*k[5mC]; antisense) [Compound 1074817]”, the figure is 8 % UTC; as for “1074849 (kT*kG*kT*dT*dA*dT*dG*dA*dT*dA*dG*dG*d[5mC]*kA*k[5mC]*kA; antisense) [Compound 1074849]”, 18 % UTC.
“1074913 (antisense k[5mC]*kA*kT*d[5mC]*d[5mC]*d[5mC]*dG*dA*dG*dT*dG*dG*dG*k[5mC]*kT*kA) [Compound 1074913]”: the “YAP1 (% UTC)” value stood at 99 % UTC.
Still for that read-out and setting: for “1074945 (antisense k[5mC]*kA*kA*dA*dA*d[5mC]*d[5mC]*d[5mC]*dT*dT*dT*dG*dG*kT*k[5mC]*kT) [Compound 1074945]” the value was 74 % UTC.

The series is the same for the next values; noted with them: Table 16; A-431 cells, 5,000 cells per well, free uptake, 2,000 nM, approximately 48 hours; RTS4814; normalized to RIBOGREEN; Yap1 mRNA relative to untreated control cells.
In the case of “1074722 (antisense kA*kG*kG*dA*dA*dG*dA*dT*d[5mC]*dT*d[5mC]*d[5mC]*dA*kT*kA*kT) [Compound 1074722]”, the “YAP1 (% UTC)” value is given as 57 % UTC.
The same measure, in the same setting: for “1074786 (kA*kA*k[5mC]*d[5mC]*dA*dT*dA*dA*dG*dT*dA*dG*dA*kT*k[5mC]*kT; antisense) [Compound 1074786]” the value was 28 % UTC; for “1074818 (kA*k[5mC]*kT*dG*dA*dA*dT*dA*dT*dT*dG*d[5mC]*d[5mC]*kA*k[5mC]*k[5mC]; antisense) [Compound 1074818]”, 12 % UTC; for “1074850 (antisense kT*kT*kG*dT*dT*dA*dT*dG*dA*dT*dA*dG*dG*k[5mC]*kA*k[5mC]) [Compound 1074850]”, 5 % UTC.
The same measure, in the same setting: as for “1074914 (antisense kT*kT*kA*d[5mC]*dA*dT*d[5mC]*d[5mC]*d[5mC]*dG*dA*dG*dT*kG*kG*kG) [Compound 1074914]”, the figure is 97 % UTC; as for “1074946 (antisense k[5mC]*k[5mC]*kA*dA*dA*dA*d[5mC]*d[5mC]*d[5mC]*dT*dT*dT*dG*kG*kT*k[5mC]) [Compound 1074946]”, 109 % UTC.

The series is the same for the next values; noted with them: Table 17; A-431 cells, 5,000 cells per well, free uptake, 2,000 nM, approximately 48 hours; RTS4814; normalized to RIBOGREEN; Yap1 mRNA relative to untreated control cells.
As for “1074723 (antisense kG*kG*kT*dA*dA*dA*dG*dG*dA*dA*dG*dA*dT*k[5mC]*kT*k[5mC]) [Compound 1074723]”, the “YAP1 (% UTC)” value turned out to be 6 % UTC.
Still for that read-out and setting: as for “1074787 (k[5mC]*kA*kA*d[5mC]*d[5mC]*dA*dT*dA*dA*dG*dT*dA*dG*kA*kT*k[5mC]; antisense) [Compound 1074787]”, the figure is 13 % UTC; as for “1074819 (kA*kA*kG*d[5mC]*dA*d[5mC]*dT*dG*dA*dA*dT*dA*dT*kT*kG*k[5mC]; antisense) [Compound 1074819]”, 33 % UTC; as for “1074851 (antisense kA*kT*kT*dG*dT*dT*dA*dT*dG*dA*dT*dA*dG*kG*k[5mC]*kA) [Compound 1074851]”, 6 % UTC.
The same measure, in the same setting: for “1074915 (antisense kA*kG*kT*dT*dA*d[5mC]*dA*dT*d[5mC]*d[5mC]*d[5mC]*dG*dA*kG*kT*kG) [Compound 1074915]” the value was 65 % UTC; for “1074947 (antisense kT*k[5mC]*k[5mC]*dA*dA*dA*dA*d[5mC]*d[5mC]*d[5mC]*dT*dT*dT*kG*kG*kT) [Compound 1074947]”, 99 % UTC.

The series is the same for the next values; noted with them: Yap1 mRNA remaining as percent of untreated control; 3-10-3 cEt gapmers; A-431 cells; Table 36.
For the substance “1074742 (kA*kA*kA*dG*dG*dA*d[5mC]*dT*d[5mC]*dT*dT*dA*dG*kG*kT*k[5mC]; antisense) [compound 1074742]”, the “YAP1 (% UTC)” value came to 25 % UTC.
On the same count and under the same terms, for “1074774 (k[5mC]*kA*kA*dG*dA*dA*dT*dA*d[5mC]*d[5mC]*d[5mC]*dA*dG*kT*kT*kA; antisense) [compound 1074774]” the value was 16 % UTC; for “1074806 (kT*kT*kG*dT*dA*dG*d[5mC]*dA*dA*dA*dG*dT*d[5mC]*kA*k[5mC]*kT; antisense) [compound 1074806]”, 8 % UTC.
In the case of “1074838 (kA*kT*kA*dA*d[5mC]*dA*dA*d[5mC]*dA*dT*dG*d[5mC]*dT*kT*kG*k[5mC]; antisense) [compound 1074838]”, the “YAP1 (% UTC)” value was 9 % UTC.
On the same count and under the same terms, as for “1074870 (kG*kT*kA*dA*dG*dT*dA*d[5mC]*d[5mC]*dT*dA*dA*d[5mC]*kA*kT*kA; antisense) [compound 1074870]”, the figure is 20 % UTC; as for “1074902 (antisense k[5mC]*kT*kA*dT*dT*dA*dA*d[5mC]*dT*dT*dT*dT*dG*kG*kG*k[5mC]) [compound 1074902]”, 54 % UTC; as for “1074934 (antisense k[5mC]*kA*kG*dG*dA*dG*dA*d[5mC]*dT*dA*dT*dA*d[5mC]*kA*kA*k[5mC]) [compound 1074934]”, 74 % UTC.
With “1074966 (antisense kA*kT*kT*dG*dA*dA*dG*dT*dG*dT*dT*dT*dA*kG*kG*k[5mC]) [compound 1074966]”, the “YAP1 (% UTC)” value is recorded as 9 % UTC.

The same series, now with this note: Yap1 mRNA remaining as percent of untreated control; 3-10-3 cEt gapmers; A-431 cells; Table 37.
On to “1074743 (kG*kA*kA*dA*dG*dG*dA*d[5mC]*dT*d[5mC]*dT*dT*dA*kG*kG*kT; antisense) [compound 1074743]”, for which the “YAP1 (% UTC)” value amounted to 16 % UTC.
On the same count and under the same terms, for “1074807 (k[5mC]*k[5mC]*kA*dT*dA*dT*dA*dG*dA*dA*dG*dG*d[5mC]*kA*kT*kG; antisense) [compound 1074807]” the value was 75 % UTC; for “1074839 (kT*kA*kT*dA*dA*d[5mC]*dA*dA*d[5mC]*dA*dT*dG*d[5mC]*kT*kT*kG; antisense) [compound 1074839]”, 33 % UTC.
Regarding “1074871 (kT*kG*kT*dA*dA*dG*dT*dA*d[5mC]*d[5mC]*dT*dA*dA*k[5mC]*kA*kT; antisense) [compound 1074871]”, the “YAP1 (% UTC)” value stood at 70 % UTC.
Turning to “1074903 (antisense k[5mC]*k[5mC]*kT*dA*dT*dT*dA*dA*d[5mC]*dT*dT*dT*dT*kG*kG*kG) [compound 1074903]”, the “YAP1 (% UTC)” value came out at 87 % UTC.
Still for that read-out and setting: as for “1074935 (antisense kA*k[5mC]*kA*dG*dG*dA*dG*dA*d[5mC]*dT*dA*dT*dA*k[5mC]*kA*kA) [compound 1074935]”, the figure is 80 % UTC.

Still in this series, the particulars now being: table after Table 37, headed TABLE 32 (gapmers targeting SEQ ID NO.: 3); A-431 cells, free uptake, 2,000 nM, approximately 48 hours, RTS4814.
With “1074880 (k[5mC]*kT*k[5mC]*d[5mC]*dT*dG*d[5mC]*d[5mC]*dG*dA*dA*dG*d[5mC]*kA*kG*kT; antisense) [compound 1074880]”, the “YAP1 (% UTC)” value is 101 % UTC.
Consider “1074881 (k[5mC]*kT*kA*dA*d[5mC]*dT*d[5mC]*d[5mC]*dT*dG*d[5mC]*d[5mC]*dG*kA*kA*kG; antisense) [compound 1074881]”, for which the “YAP1 (% UTC)” value was 76 % UTC.
As for “1074882 (kG*k[5mC]*kT*dA*dA*d[5mC]*dT*d[5mC]*d[5mC]*dT*dG*d[5mC]*d[5mC]*kG*kA*kA; antisense) [compound 1074882]”, the “YAP1 (% UTC)” value was found to be 73 % UTC.
On the same count and under the same terms, for “1074883 (kG*kG*k[5mC]*dT*dA*dA*d[5mC]*dT*d[5mC]*d[5mC]*dT*dG*d[5mC]*k[5mC]*kG*kA; antisense) [compound 1074883]” the value was 107 % UTC; for “1074884 (kG*kG*kG*d[5mC]*dT*dA*dA*d[5mC]*dT*d[5mC]*d[5mC]*dT*dG*k[5mC]*k[5mC]*kG; antisense) [compound 1074884]”, 110 % UTC; for “1074885 (kA*kG*kG*dG*d[5mC]*dT*dA*dA*d[5mC]*dT*d[5mC]*d[5mC]*dT*kG*k[5mC]*k[5mC]; antisense) [compound 1074885]”, 115 % UTC.
Same read-out and setting: for “1074886 (k[5mC]*kA*kG*dG*dG*d[5mC]*dT*dA*dA*d[5mC]*dT*d[5mC]*d[5mC]*kT*kG*k[5mC]; antisense) [compound 1074886]” the value was 104 % UTC.
